Key:
5-lipoxygenase = target: T1, 5-lipoxygenase (Homo sapiens, UniProt P09917); assay: 5-Lipoxygenase Enzyme Assay (colorimetric, ferric oxidation of xylenol orange); assay type: biochemical; parameters: purchased Cayman 60402; conditions: read-out: in vitro IC50 value in a 5-LO enzyme assay
T1 sequence (P09917 1-674): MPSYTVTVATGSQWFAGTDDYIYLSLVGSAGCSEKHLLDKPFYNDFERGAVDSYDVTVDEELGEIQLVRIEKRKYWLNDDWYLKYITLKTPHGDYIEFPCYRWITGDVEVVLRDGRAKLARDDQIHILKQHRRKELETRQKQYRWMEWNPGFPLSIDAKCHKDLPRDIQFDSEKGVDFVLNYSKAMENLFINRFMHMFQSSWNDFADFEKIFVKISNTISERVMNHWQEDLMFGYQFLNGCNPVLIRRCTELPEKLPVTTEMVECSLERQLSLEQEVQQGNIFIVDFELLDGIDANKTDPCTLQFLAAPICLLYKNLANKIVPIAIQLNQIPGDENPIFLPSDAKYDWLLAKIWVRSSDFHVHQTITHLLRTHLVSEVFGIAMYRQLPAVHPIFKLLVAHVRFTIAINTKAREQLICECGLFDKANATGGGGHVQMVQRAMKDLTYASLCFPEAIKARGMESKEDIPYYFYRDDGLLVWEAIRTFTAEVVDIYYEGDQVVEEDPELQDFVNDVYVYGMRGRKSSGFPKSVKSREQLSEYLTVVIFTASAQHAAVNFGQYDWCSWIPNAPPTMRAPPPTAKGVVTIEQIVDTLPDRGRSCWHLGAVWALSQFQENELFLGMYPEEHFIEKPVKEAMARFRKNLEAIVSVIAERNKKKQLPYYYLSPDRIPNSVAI
Procedure: This procedure was used for measuring the enzymatic activity of human recombinant 5-lipoxygenase using a colorimetric method based on the ferric oxidation of xylenol orange.
(§1) The test compound and/or vehicle was added to 0.5 μL 5-lipoxygenase in 50 mM Tris-HCl buffer, pH 7.4. The reaction was initiated by addition of 70 μM arachidonic acid in Tris-HCl buffer, pH 7.4, and terminated after a 10 minute incubation at room temperature by addition of FOX reagent (25 mM sulphuric acid, 100 μM xylenol orange, 100 μM iron (II) sulphate, methanol:water 9:1). The yellow color of acidified xylenol orange was converted to a blue color by the lipid hydroperoxide-mediated oxidation of Fe^2+ ions and the interaction of the resulting Fe^3+ ions with the dye. The complex was allowed to form during a 1 hour incubation at room temperature with shaking. Absorbance of the Fe^3+ complex was then measured at 620 nm using a spectrophotometer. Negative controls contained enzyme during the incubation step but substrate was not added until after the FOX reagent.

[1] = target: T2, porcine leukocyte 12/15-lipoxygenase (Sus scrofa, UniProt P16469); assay: 12/15-Lipoxygenase Enzyme Assay (colorimetric, ferric oxidation of xylenol orange); assay type: biochemical; conditions: read-out: in vitro IC50 value in a 12/15-LO enzyme assay
T2 construct: purchased Cayman 60300
T2 sequence (P16469 1-663): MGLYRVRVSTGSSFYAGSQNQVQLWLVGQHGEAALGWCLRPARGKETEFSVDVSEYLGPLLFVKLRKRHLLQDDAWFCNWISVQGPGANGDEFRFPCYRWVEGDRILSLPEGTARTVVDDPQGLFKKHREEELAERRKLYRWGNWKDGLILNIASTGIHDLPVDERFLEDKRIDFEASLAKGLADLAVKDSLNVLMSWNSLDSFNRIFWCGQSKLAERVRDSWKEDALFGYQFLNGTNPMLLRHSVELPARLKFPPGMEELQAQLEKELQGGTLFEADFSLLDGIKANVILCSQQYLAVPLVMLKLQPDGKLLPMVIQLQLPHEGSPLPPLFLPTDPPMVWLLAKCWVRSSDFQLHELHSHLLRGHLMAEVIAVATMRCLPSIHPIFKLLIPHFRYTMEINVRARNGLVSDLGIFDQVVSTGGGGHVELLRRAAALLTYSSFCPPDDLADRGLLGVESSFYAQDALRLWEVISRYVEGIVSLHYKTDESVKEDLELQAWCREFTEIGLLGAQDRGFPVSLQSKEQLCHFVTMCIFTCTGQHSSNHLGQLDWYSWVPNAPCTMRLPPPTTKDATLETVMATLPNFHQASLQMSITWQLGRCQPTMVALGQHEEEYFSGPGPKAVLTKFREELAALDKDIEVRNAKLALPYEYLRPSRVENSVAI
Procedure: This procedure was used for measuring the enzymatic activity of porcine leukocyte 12/15-lipoxygenase using a colorimetric method based on the ferric oxidation of xylenol orange.
as §1, with “vehicle were” for “vehicle was”, “to 1.3” for “to 0.5”, “μL 12/15-lipoxygenase” for “μL 5-lipoxygenase”, “spectrophotometer.” for “spectrophotometer. Negative controls contained enzyme during the incubation step but substrate was not added until after the FOX reagent.”
Negative controls contained enzyme during the incubation step but substrate was not added until after the FOX reagent.

For `COCOc1ccc(C=Cc2ccc(C(F)(F)F)cc2)cc1OCOC` [1,2-bis-methoxymethoxy-4-[2-(4-trifluoromethyl-phenyl)-vinyl]-benzene], the IC50 (5-lipoxygenase) was < 5 µM and the IC50 [1] was < 5 µM.
In the case of `Cc1c(O)c(C)c(C(F)(F)F)c2c1CCC(C)(C)O2` [2,2,5,7-tetramethyl-8-(trifluoromethyl)chroman-6-ol], the IC50 (5-lipoxygenase) is reported as < 5 µM and the IC50 [1] is reported as < 5 µM.
`Cc1c(O)c(CCC(C)C)c(C)c2c1CCC(C)(C)O2` [2,2,5,8-tetramethyl-7-(3-methyl-butyl)-chroman-6-ol] was tested, and the IC50 (5-lipoxygenase) was < 5 µM and the IC50 [1] was < 5 µM.
For `CC1(C)CCc2cc(O)c3cccc(O)c3c2O1` [2,2-dimethyl-3,4-dihydro-2H-benzo[h]chromene-6,10-diol], the IC50 (5-lipoxygenase) was < 5 µM and the IC50 [1] was < 5 µM.
With `Cc1c(C)c2c(c(C)c1O)CCC(C)(c1cccs1)O2` (stereo not drawn) [2,5,7,8-tetramethyl-2-(thiophen-2-yl)chroman-6-ol] the IC50 (5-lipoxygenase) was < 5 µM and the IC50 [1] was < 5 µM.
For `Cc1c(C)c2c(c(C)c1O)CCC(C)(C=Cc1ccccc1)O2` (stereo not drawn) [2,5,7,8-tetramethyl-2-styrylchroman-6-ol], the IC50 (5-lipoxygenase) was < 5 µM and the IC50 [1] was < 5 µM.
`Cc1cc(C=Cc2ccc([N+](=O)[O-])cc2)cc(C)c1O` [2,6-dimethyl-4-[2-(4-nitro-phenyl)-vinyl]-phenol] was tested, and the IC50 (5-lipoxygenase) was < 5 µM and the IC50 [1] was < 5 µM.
In the case of `Cc1c(O)cc2c(c1C)OC(C)(CCCl)CC2` (stereo not drawn) [2-(2-chloro-ethyl)-2,7,8-trimethyl-chroman-6-ol], the IC50 (5-lipoxygenase) is reported as < 5 µM and the IC50 [1] is reported as < 5 µM.
For `Cc1c(C)c2c(c(C)c1O)CCC(C)(c1cc(F)c(O)c(F)c1)O2` (stereo not drawn) [2-(3,5-difluoro-4-hydroxyphenyl)-2,5,7,8-tetramethylchroman-6-ol], the IC50 (5-lipoxygenase) was < 5 µM and the IC50 [1] was < 5 µM.
For `Oc1ccc(C=Cc2ccc(O)c(O)c2)c(O)c1` [4-(2,4-dihydroxystyryl)benzene-1,2-diol], the IC50 (5-lipoxygenase) was < 5 µM and the IC50 [1] was < 5 µM.
With `N#Cc1ccc(CCc2cc(O)c(O)c(O)c2)cc1` [4-(3,4,5-trihydroxyphenethyl)benzonitrile] the IC50 (5-lipoxygenase) was < 5 µM and the IC50 [1] was < 5 µM.
`N#Cc1ccc(C=Cc2ccc(O)c(O)c2O)cc1` [4-[2-(2,3,4-trihydroxy-phenyl)-vinyl]-benzonitrile] was tested, and the IC50 (5-lipoxygenase) was < 5 µM and the IC50 [1] was < 5 µM.
With `COC(=O)c1ccc(C=Cc2ccc(O)c(O)c2)cc1` [4-[2-(3,4-dihydroxy-phenyl)-vinyl]-benzoic acid methyl ester] the IC50 (5-lipoxygenase) was < 5 µM and the IC50 [1] was < 5 µM.
With `Oc1ccc(C=Cc2ccc(Br)cc2)cc1O` [4-[2-(4-bromo-phenyl)-vinyl]-benzene-1,2-diol] the IC50 (5-lipoxygenase) was < 5 µM and the IC50 [1] was < 5 µM.
With `O=[N+]([O-])c1ccc(C=Cc2ccc(O)c(O)c2)cc1` [4-[2-(4-nitro-phenyl)-vinyl]-benzene-1,2-diol] the IC50 (5-lipoxygenase) was < 5 µM and the IC50 [1] was < 5 µM.
In the case of `COCOc1ccc(C=Cc2ccc(C(C)(C)C)cc2)cc1OCOC` [4-[2-(4-tert-Butyl-phenyl)-vinyl]-1,2-bis-methoxymethoxy-benzene], the IC50 (5-lipoxygenase) is reported as < 5 µM and the IC50 [1] is reported as < 5 µM.
For `COC(=O)c1ccc(C=Cc2ccc(O)c(O)c2CC=C(C)C)cc1` [4-{2-[3,4-dihydroxy-2-(3-methyl-but-2-enyl)-phenyl]-vinyl}benzoic acid methyl ester], the IC50 (5-lipoxygenase) was < 5 µM and the IC50 [1] was < 5 µM.
For `O=S(=O)(c1ccc(C=Cc2ccc(O)c(O)c2)cc1)N1CCCCC1` [4-{2-[4-(piperidine-1-sulfonyl)-phenyl]-vinyl}benzene-1,2-diol], the IC50 (5-lipoxygenase) was < 5 µM and the IC50 [1] was < 5 µM.
`CC(C)=CCc1cc(C=Cc2ccc(N(C)C)cc2)cc(O)c1O` [5-(4-(dimethylamino)styryl)-3-(3-methylbut-2-enyl)benzene-1,2-diol] was tested, and the IC50 (5-lipoxygenase) was < 5 µM and the IC50 [1] was < 5 µM.
With `CNc1ccc(C=Cc2cc(O)c(O)c(CC=C(C)C)c2)cc1` [5-(4-(methylamino)styryl)-3-(3-methylbut-2-enyl)benzene-1,2-diol] the IC50 (5-lipoxygenase) was < 5 µM and the IC50 [1] was < 5 µM.
For `O=[N+]([O-])c1ccc(CCc2cc(O)c(O)c(O)c2)cc1` [5-(4-nitrophenethyl)benzene-1,2,3-triol], the IC50 (5-lipoxygenase) was < 5 µM and the IC50 [1] was < 5 µM.
With `Cc1c(C)c2c(c(-c3ccco3)c1O)CCC(C)(C)O2` [5-(furan-2-yl)-2,2,7,8-tetramethylchroman-6-ol] the IC50 (5-lipoxygenase) was < 5 µM and the IC50 [1] was < 5 µM.
For `C=CCSCc1c(O)c(C)c(C)c2c1CCC(C)(C)O2` [5-allylsulfanylmethyl-2,2,7,8-tetramethyl-chroman-6-ol], the IC50 (5-lipoxygenase) was < 5 µM and the IC50 [1] was < 5 µM.
For `Cc1c(C)c2c(c(Cl)c1O)CCC(C)(C)O2` [5-chloro-2,2,7,8-tetramethylchroman-6-ol], the IC50 (5-lipoxygenase) was < 5 µM and the IC50 [1] was < 5 µM.
In the case of `COc1c(O)c(C)c(C)c2c1CCC(C)(C)O2` [5-methoxy-2,2,7,8-tetramethylchroman-6-ol], the IC50 (5-lipoxygenase) is reported as < 5 µM and the IC50 [1] is reported as < 5 µM.
In the case of `Cc1c(O)c(Br)c(C)c2c1CCC(C)(C)O2` [7-bromo-2,2,5,8-tetramethyl-chroman-6-ol], the IC50 (5-lipoxygenase) is reported as < 5 µM and the IC50 [1] is reported as < 5 µM.
With `Cc1c(O)c(C)c2c(c1I)OC(C)(C)CC2` [8-iodo-2,2,5,7-tetramethylchroman-6-ol] the IC50 (5-lipoxygenase) was < 5 µM and the IC50 [1] was < 5 µM.
For `Cc1c(O)c(C)c2c(c1CCC(C)C)OC(C)(C)CC2` [8-isopentyl-2,2,5,7-tetramethylchroman-6-ol], the IC50 (5-lipoxygenase) was < 5 µM and the IC50 [1] was < 5 µM.
With `CC(=O)Nc1ccc(C=Cc2ccc(O)c(O)c2)cc1` [N-{4-[2-(3,4-dihydroxy-phenyl)-vinyl]-phenyl}acetamide] the IC50 (5-lipoxygenase) was < 5 µM and the IC50 [1] was < 5 µM.
With `CS(=O)(=O)Nc1ccc(C=Cc2ccc(O)c(O)c2)cc1` [N-{4-[2-(3,4-dihydroxy-phenyl)-vinyl]-phenyl}methanesulfonamide] the IC50 (5-lipoxygenase) was < 5 µM and the IC50 [1] was < 5 µM.
